Where two headings read alike, the source gives them in different places. One block for each compound: values may come before it.
Assays:
[1] = General pharmacological screening: anti-inflammatory activity; settings: result in words
[2] = tested on: guinea pig ileal longitudinal smooth muscle; assay: Calcium channel antagonist testing: inhibition of carbachol-induced, muscarinic receptor-mediated Ca2+-dependent contraction of smooth muscle; format: cell-based; settings: for relative potency compared with Nifedipine: calcium antagonist in smooth muscle, Nifedipine = 1
Excerpt: The compounds of this invention of formulae I and II are suitably prepared, applying modified Hantzsch pyridine synthesis, by reacting the appropriately substituted heterocyclic alkyl acetoacetate or substituted heterocyclic mercapto alkyl acetoacetate with a substituted benzaldehyde derivative and methyl-β-aminocrotonate in isopropanol. The compounds of formula III are suitably prepared by reacting diketene or an alkyldiketene with an appropriately substituted heterocyclic ω-alkanol or substituted heterocyclic mercapto ω-alkanol in benzene. The related sulfoxy and sulfonyl derivatives of formula VI may be prepared by oxidizing the relative mercapto derivative with m-chloroperbenzoic acid in CH₂Cl₂ followed, if required, by further oxidation with potassium permanganate in acetic acid. All the products in this invention are characterized by their respective nmr, ir spectra and their elemental analysis. The relative purity has been determined by HPLC. Calcium antagonistic activity of the compounds was determined at the concentration required to produce 50% inhibition of the muscarinic receptor-mediated Ca²⁺-dependent contraction of guinea pig ileal longitudinal smooth muscle assay.
Calcium channel antagonist activity was determined as the concentration required to produce 50% inhibition of the muscarinic receptor-mediated Ca⁺²-dependent contraction of guinea pig ileal longitudinal smooth muscle assay (C. Triggle, V. Swamy and D. Triggle, Can. J. Physiol. Pharmacol., 1979, 57, 804). Male albino guinea pigs (body weight 300 - 450g) were sacrificed by decapitation. The intestine was removed above the ileocaecal junction. Longitudinal smooth muscle segments of 2cm length were mounted under a resting tension of 300 - 400 mg. The segments were maintained at 37°C in a 10mL jacketed organ bath containing oxygenated (100% O₂) physiological saline solution of the following composition (mM): NaCl: 137; CaCl₂: 2.6; KCl: 5.9; MgCl₂: 1.2; glucose: 11.9; buffered by Hepes-NaOH to pH 7.4. The muscles were equilibrated for 1h with a solution change every 15 min. Two successive control contractions were elicited at 15 min. intervals with 5x10⁻⁷M carbachol. The isometric contractions were recorded with a force displacement transducer (FT 03C) on a GRASS* physiograph. The means of the […] contractile responses was taken as the 100% value for the tonic (slow) component of the response. The muscle was washed with Hepes saline solution and was allowed to re-equilibrate. The calcium antagonist (test compound) was added ten min before the dose-response for carbachol was determined. The drug-induced inhibition of contraction was expressed as percent of control. The ID₅₀ values were graphically determined from the concentration-response curves, in triplicate.

heart muscle [3] = assay: Ionotropic effect and heart rate on heart muscle; format: cell-based; settings: for heart contractile force / heart rate: at the concentrations which normally exhibit the Ca-blocking effect in smooth muscles; for positive ionotropic effect on the heart muscle: same concentration as smooth muscle relaxant (IC50 concentration; 3.25 x 10⁻⁹M for Compound 11)
angiotensin = assay: In-vitro angiotensin inhibitory activity; format: biochemical; settings: for angiotensin inhibitory activity: general pharmacological screening, result in words
LTD₄ = assay: General pharmacological screening: LTD4 antagonistic activity; settings: result in words
[4] = General pharmacological screening: anti-ulcer stressic activity; settings: result in words
SHR Rat = assay: Blood pressure and heart rate in SHR Rat; format: in vivo; settings: 0.2mg/Kg
heart muscle [5] = settings: in the concentration of its smooth muscle calcium channel blocking effectiveness; cited from earlier work
[6] = Cavia porcellus, read-out: IC₅₀ as a calcium antagonist in smooth muscle
[7] = Cavia porcellus, exponent (x 10⁻⁹), carbachol 5x10⁻⁷M, tonic component, triplicate, read-out: calcium channel antagonist act., inhib. act. on contractile Response to CD ID₅₀

SMILES: COC(=O)C1=C(C)NC(C)=C(C(=O)OCCCCCCn2nc(C)cc2C)C1c1cccc([N+](=O)[O-])c1 (centres unmarked)
anti-inflammatory activity [1]: very strong

IC50 [2, 6]: 5.57 nM
SMILES: COC(=O)C1=C(C)NC(C)=C(C(=O)OCCCCCCS(=O)(=O)c2nc(C)cs2)C1c1cccc([N+](=O)[O-])c1 (centres unmarked) [listing 1 of 2 here]

SMILES: COC(=O)C1=C(C)NC(C)=C(C(=O)OCCCCCCS(=O)(=O)c2nc(C)cs2)C1c1cccc([N+](=O)[O-])c1 (centres unmarked) [listing 2 of 2 here]
heart contractile force (heart muscle [3]): increase the heart contractile force
heart rate (heart muscle [3]): without changing the heart rate

SMILES: COC(=O)C1=C(C)NC(C)=C(C(=O)OCCCCCCCc2cc(C)no2)C1c1cccc([N+](=O)[O-])c1 (centres unmarked)
angiotensin inhibitory activity (angiotensin): very strong
LTD₄ antagonistic activity (LTD₄): very strong
anti-ulcer stressic activity [4]: very strong

SMILES: COC(=O)C1=C(C)NC(C)=C(C(=O)OCCCCCCCc2nc(C)cs2)C1c1cccc(C(F)(F)F)c1 (centres unmarked)
anti-inflammatory activity [1]: very strong

SMILES: COC(=O)C1=C(C)NC(C)=C(C(=O)OCCCCCCCc2nc(C)cs2)C1c1cccc(Cl)c1 (centres unmarked)
angiotensin inhibitory activity (angiotensin): very strong
LTD₄ antagonistic activity (LTD₄): very strong
anti-ulcer stressic activity [4]: very strong

IC50 [2, 6]: 3.25 ± 0.33 nM
SMILES: COC(=O)C1=C(C)NC(C)=C(C(=O)OCCCCCCCc2nc(C)cs2)C1c1cccc([N+](=O)[O-])c1 (centres unmarked)
relative potency compared with Nifedipine [2]: 4.3
heart contractile force (heart muscle [3]): increase the heart contractile force
heart rate (heart muscle [3]): without changing the heart rate

SMILES: COC(=O)C1=C(C)NC(C)=C(C(=O)OCCCCCCS(=O)(=O)c2nc(C)cs2)C1c1cccc([N+](=O)[O-])c1 (centres unmarked) [3-[6-(4-methylthiazol-2-yl)sulfonylhexyloxycarbonyl]-5-metho]
relative potency compared with Nifedipine [2]: 2.5
positive ionotropic effect on the heart muscle (heart muscle [3]): about 22%

SMILES: C[C@H](CS)C(=O)N1CCC[C@H]1C(=O)O [Captopril, reference compound]
Percent Inhibition (angiotensin; Concentration 0.05 µg/ml): 69%

IC50 [2, 7]: 3.84 nM
SMILES: COC(=O)C1=C(C)NC(C)=C(C(=O)OCCCCCCCc2cc(C)no2)C1c1cccc([N+](=O)[O-])c1 (centres unmarked) [Compound 1, 3-[7-(3-methylisoxazol-5-yl)heptyloxycarbonyl]-5-methoxycarbonyl-2,6-dimethyl-4-(3-nitrophenyl)-1,4-dihydropyridine]
Percent Inhibition (angiotensin; Concentration 0.01 µg/ml): 93%
Percent Inhibition (angiotensin; concentration of 0.0025 µg): 60%

IC50 ([2]; exponent (x 10⁻⁹), carbachol 5x10⁻⁷M, tonic component, triplicate, read-out: calcium channel antagonist act., inhib. act. on contractile Response to CD ID₅₀): 5.13 nM
SMILES: COC(=O)C1=C(C)NC(C)=C(C(=O)OCCCCCCCc2cc(C)no2)C1c1cccc(C(F)(F)F)c1 (centres unmarked) [Compound 3, 3-[7-(3-mehylisoxazol-5-yl)heptyloxycarbonyl]-5-methoxycarbonyl-2,6-dimethyl-4-(3-trifluoromethylphenyl)-1,4-dihydropyridine]

IC50 [2, 7]: 6.24 nM
SMILES: COC(=O)C1=C(C)NC(C)=C(C(=O)OCCCCCCn2nc(C)cc2C)C1c1cccc([N+](=O)[O-])c1 (centres unmarked) [Compound 5, 3-[6-(3,5-dimethylpyrazol-1-yl)hexyloxycarbonyl]-5-methoxycarbonyl-2,6-dimethyl-4-(3-nitrophenyl)-1,4-dihydropyridine]
Percent Inhibition (angiotensin; Concentration 0.01 µg/ml): 95%
Percent Inhibition (angiotensin; concentration of 0.001 µg): 58%

IC50 [2, 7]: 3.25 nM
SMILES: COC(=O)C1=C(C)NC(C)=C(C(=O)OCCCCCCCc2nc(C)cs2)C1c1cccc([N+](=O)[O-])c1 (centres unmarked) [Compound 11, 3-[7-(4-methylthiazol-2-yl)heptyloxycarbonyl]-5-methoxycarbonyl-2,6-dimethyl-4-(3-nitrophenyl)-1,4-dihydropyridine]
positive ionotropic effect on the heart muscle (heart muscle [3]): about 12%
drop in blood pressure (SHR Rat): 19%
heart rate (SHR Rat): without changing the heart rate
period of drop in blood pressure (SHR Rat): 9 h

SMILES: COC(=O)C1=C(C)NC(C)=C(C(=O)OCCCCCCCc2nc(C)cs2)C1c1cccc(C(F)(F)F)c1 (centres unmarked) [Compound 13, 3-[7-(4-methylthiazol-2-yl)heptyloxycarbonyl]-5-methoxycarbonyl-2,6-dimethyl-4-(3-trifluoromethylphenyl)-1,4-dihydropyridine]
Percent Inhibition (angiotensin; Concentration 0.1 µg/ml): 80%

IC50 [2, 7]: 6.25 nM
SMILES: COC(=O)C1=C(C)NC(C)=C(C(=O)OCCCCCCCc2nc(C)cs2)C1c1cccc(Cl)c1 (centres unmarked) [Compound 15, 3-[7-(4-methylthiazol-2-yl)heptyloxycarbonyl]-5-methoxycarbonyl-2,6-dimethyl-4-(3-chlorophenyl)-1,4-dihydropyridine]
Percent Inhibition (angiotensin; Concentration 0.1 µg/ml): 64%

IC50 ([2]; Cavia porcellus, exponent printed in neighbouring spread cell (x 10⁻⁸), carbachol 5x10⁻⁷M, tonic component, triplicate, read-out: calcium channel antagonist act., inhib. act. on contractile Response to CD ID₅₀): 48.1 nM
SMILES: COC(=O)C1=C(C)NC(C)=C(C(=O)OCCCCCCCc2nc(C)cs2)C1c1cccc(Cl)c1Cl (centres unmarked) [Compound 17, 3-[7-(4-methylthiazol-2-yl)heptyloxycarbonyl]-5-methoxycarbonyl-2,6-dimethyl-4-(2,3-dichlorophenyl)-1,4-dihydropyridine]

IC50 [2, 7]: 5.48 nM
SMILES: COC(=O)C1=C(C)NC(C)=C(C(=O)OCCCCCCSc2nc(C)cs2)C1c1cccc([N+](=O)[O-])c1 (centres unmarked) [Compound 18, 3-[6-(4-methylthiazol-2-yl)thiohexyloxycarbonyl]-5-methoxycarbonyl-2,6-dimethyl-4-(3-nitrophenyl)-1,4-dihydropyridine]

IC50 [2, 7]: 5.81 nM
SMILES: COC(=O)C1=C(C)NC(C)=C(C(=O)OCCCCCCS(=O)(=O)c2nc(C)cs2)C1c1cccc([N+](=O)[O-])c1 (centres unmarked) [Compound 19, 3-[6-(4-methylthiazol-2-yl)sulfonylhexyloxycarbonyl]-5-methoxycarbonyl-2,6-dimethyl-4-(3-nitrophenyl)-1,4-dihydropyridine]
positive ionotropic effect on the heart muscle (heart muscle [3]): 25%

SMILES: CCOC(=O)C1=C(C)NC(C)=C(C(=O)OC)C1c1cccc(Cl)c1Cl (centres unmarked) [Felodipine, 3-ethoxycarbonyl-5-methoxycarbonyl-4-(2,3-dichlorophenyl)-2,6-dimethyl-1,4-dihydropyridine]
effect on the heart (heart muscle [5]): no effect on the heart
